Experimental data reported in PubChem BioAssay (NCI).
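These data come from cells grown in 96-well plates and exposed to compound for 48 hours at five concentrations. TGI marks complete inhibition of growth.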

How the values were obtained:
Assay in all cases: NCI tumour cell line growth inhibition, 48 h
786-0 renal = test system: 786-0 renal
A549 NSCLC = test system: A549 NSCLC
ACHN renal = test system: ACHN renal
COLO 205 colon = test system: COLO 205 colon
DLD-1 colon = test system: DLD-1 colon
DMS 114 small cell lung = test system: DMS 114 small cell lung
DMS 273 small cell lung = test system: DMS 273 small cell lung
EKVX NSCLC = test system: EKVX NSCLC
HCC-2998 colon = test system: HCC-2998 colon
HCT-116 colon = test system: HCT-116 colon
HCT-15 colon = test system: HCT-15 colon
HOP-62 NSCLC = test system: HOP-62 NSCLC
HOP-92 NSCLC = test system: HOP-92 NSCLC
HT29 colon = test system: HT29 colon
IGROV1 ovarian = test system: IGROV1 ovarian
K-562 leukemia = test system: K-562 leukemia
KM20L2 colon = test system: KM20L2 colon
LOX IMVI melanoma = test system: LOX IMVI melanoma
LXFL 529 NSCLC = test system: LXFL 529 NSCLC
M19-MEL melanoma = test system: M19-MEL melanoma
MALME-3M melanoma = test system: MALME-3M melanoma
MOLT-4 leukemia = test system: MOLT-4 leukemia
NCI-H226 lung = test system: NCI-H226 lung
NCI-H23 lung = test system: NCI-H23 lung
NCI-H460 lung = test system: NCI-H460 lung
NCI-H522 lung = test system: NCI-H522 lung
OVCAR-3 ovarian = test system: OVCAR-3 ovarian
OVCAR-4 ovarian = test system: OVCAR-4 ovarian
OVCAR-8 ovarian = test system: OVCAR-8 ovarian
RPMI-8226 leukemia = test system: RPMI-8226 leukemia
SF-268 CNS = test system: SF-268 CNS
SF-295 CNS = test system: SF-295 CNS
SF-539 CNS = test system: SF-539 CNS
SK-MEL-2 melanoma = test system: SK-MEL-2 melanoma
SK-MEL-28 melanoma = test system: SK-MEL-28 melanoma
SK-MEL-5 melanoma = test system: SK-MEL-5 melanoma
SN12C renal = test system: SN12C renal
SNB-75 CNS = test system: SNB-75 CNS
SNB-78 CNS = test system: SNB-78 CNS
SR leukemia = test system: SR leukemia
SW-620 colon = test system: SW-620 colon
TK-10 renal = test system: TK-10 renal
U251 CNS = test system: U251 CNS
UACC-257 melanoma = test system: UACC-257 melanoma
UACC-62 melanoma = test system: UACC-62 melanoma
UO-31 renal = test system: UO-31 renal
A498 renal = test system: A498 renal
CAKI-1 renal = test system: CAKI-1 renal
CCRF-CEM leukemia = test system: CCRF-CEM leukemia
HL-60(TB) leukemia = test system: HL-60(TB) leukemia
KM12 colon = test system: KM12 colon
M14 melanoma = test system: M14 melanoma
OVCAR-5 ovarian = test system: OVCAR-5 ovarian
RXF 393 renal = test system: RXF 393 renal
SK-OV-3 ovarian = test system: SK-OV-3 ovarian
SNB-19 CNS = test system: SNB-19 CNS
XF 498 CNS = test system: XF 498 CNS
HOP-18 NSCLC = test system: HOP-18 NSCLC

Measured: TGI

COc1cc2c(c(OC)c1OC)-c1ccc(SC)c(=O)cc1[C@@H](NC(=O)c1ccc(C#N)cc1)CC2
12.9 µM: OVCAR-8 ovarian
18.3 µM: LXFL 529 NSCLC
> 46.3 µM: DMS 273 small cell lung
56.4 µM: HOP-62 NSCLC
< 0.0316 µM: U251 CNS
> 48.7 µM: SF-268 CNS
12.6 µM: HCT-116 colon
96.9 µM: MALME-3M melanoma
36.7 µM: LOX IMVI melanoma
< 0.0108 µM: OVCAR-3 ovarian
83.7 µM: SNB-78 CNS
10.6 µM: HOP-92 NSCLC
> 77.8 µM: SN12C renal
< 0.01 µM: COLO 205 colon | DMS 114 small cell lung | HCC-2998 colon | HT29 colon | KM20L2 colon | NCI-H226 lung | NCI-H23 lung | NCI-H460 lung | NCI-H522 lung | SF-295 CNS | SF-539 CNS | SK-MEL-5 melanoma
92.4 µM: SNB-75 CNS
20.9 µM: 786-0 renal
> 53.8 µM: MOLT-4 leukemia
6.58 µM: SK-MEL-2 melanoma
not listed: A498 renal | CAKI-1 renal | CCRF-CEM leukemia | HL-60(TB) leukemia | KM12 colon | M14 melanoma | OVCAR-5 ovarian | RXF 393 renal | SK-OV-3 ovarian | SNB-19 CNS | XF 498 CNS | HOP-18 NSCLC
> 100 µM: all other assays above

Fc1nc(F)nc(-c2c3ccccc3c3n2CCS3)n1
92.7 µM: U251 CNS
not listed: MOLT-4 leukemia | OVCAR-8 ovarian | TK-10 renal | UACC-257 melanoma | UACC-62 melanoma | HOP-18 NSCLC
> 100 µM: all other assays above

CCC1NCC(=O)c2c1[nH]c1ccccc21 (stereo not given)
not listed: HOP-62 NSCLC | RXF 393 renal | XF 498 CNS
> 100 µM: all other assays above

O=C(OCc1nc2ccc(Br)cc2c(=O)n1-c1ccccc1)c1ccccc1O
68.7 µM: SK-MEL-5 melanoma
not listed: DMS 114 small cell lung | DMS 273 small cell lung | HCT-15 colon | SR leukemia | SNB-19 CNS | HOP-18 NSCLC
> 100 µM: all other assays above
